Data reported in patent publication US20020002171A1, “Materials and methods for killing nematodes and nematode eggs” (priority 2000, published 2002).

system: Caenorhabditis elegans; assay: C. elegans L1 nematicidal dose response in 96-well plates, 5 day visual score (Example 2; same procedure for Example 7, Table 3); format: in vivo; parameters: key to 5 Day Visual Score V1 / 5 Day Visual Score V2 / 5 Day Visual Score V3 / 5 Day Visual Score V4 / 5 Day Visual Score V6 / 5 Day Visual Score V5 / Initial HTS Run Visual Score / Follow-up HTS Run Visual Score: Dead: only stiff L1s (no movement); Dead (L4): worms are dead, but at a later larval stage; majority of worms are L1 (based on size) worms move when plate is tapped; majority of worms are L2 (based on size); majority of worms are L3 (based on size); majority of worms are L4 (based on size); AD: majority of worms are adult; #AD: 5 adult worms or less; B!: sterile (0-25 progeny); B: low broodsize (25-100 progeny); ˜B: moderate broodsize (100-250 progeny); <: reduced broodsize (250-500 progeny); OK: no effect (˜1000+ progeny); conditions: Follow-up HTS run
Procedure, shortened: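 L1 larvae, 20 per well in NGM with 1% E. coli HB101 and antibiotic/antimycotic, exposed to six 3-fold dilutions from 70 μM down to 0.3 μM (1.4% DMSO at top). Held at 20° C; viability scored visually under 100× dissecting microscope on day 5.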

| Compound | Follow-up HTS Run % Run [%] | Follow-up HTS Run mOD [mOD] | Follow-up HTS Run Visual Score |
| --- | --- | --- | --- |
| CCN(CC)C(=O)C1CCCN(c2nc(NCc3ccccc3)ns2)C1 (centres unmarked) [compound 265] | 111 | 178 | – |
| FC(F)(F)c1cccc(N2CCN(c3nc(NCc4ccccc4)ns3)CC2)c1 [compound 266] | 124 | 200 | – |
| CCOc1cc(CCNc2nsc(N3CCN(c4ccc(F)cc4)CC3)n2)ccc1OC [compound 267] | 99 | 160 | Dead |
| Fc1ccc(N2CCN(c3nc(NCCc4ccc(Oc5ccccc5)cc4)ns3)CC2)cc1 [compound 268] | 96 | 154 | Dead |
| Cc1cccc(C)c1N1CCN(c2nc(NCCc3ccc(Oc4ccccc4)cc3)ns2)CC1 [compound 269] | 132 | 212 | L4/AD/B |
| CCCCCCCCCCCCCCCCCCN(C)c1nc(NCCc2ccc(Oc3ccccc3)cc2)ns1 [compound 270] | 113 | 182 | – |

same assay, conditions: Initial HTS run

| Compound | Initial HTS Run % Run [%] | Initial HTS Run mOD [mOD] | Initial HTS Run Visual Score |
| --- | --- | --- | --- |
| CCN(CC)C(=O)C1CCCN(c2nc(NCc3ccccc3)ns2)C1 (centres unmarked) [compound 265] | 108 | 119 | – |
| FC(F)(F)c1cccc(N2CCN(c3nc(NCc4ccccc4)ns3)CC2)c1 [compound 266] | 110 | 121 | – |
| CCOc1cc(CCNc2nsc(N3CCN(c4ccc(F)cc4)CC3)n2)ccc1OC [compound 267] | 94 | 103 | Dead |
| Fc1ccc(N2CCN(c3nc(NCCc4ccc(Oc5ccccc5)cc4)ns3)CC2)cc1 [compound 268] | 128 | 141 | Dead |
| Cc1cccc(C)c1N1CCN(c2nc(NCCc3ccc(Oc4ccccc4)cc3)ns2)CC1 [compound 269] | 166 | 183 | L4/1AD/B |
| CCCCCCCCCCCCCCCCCCN(C)c1nc(NCCc2ccc(Oc3ccccc3)cc2)ns1 [compound 270] | 149 | 164 | – |

same assay, conditions: dose response, dilution V1, day 5

| Compound | 5 Day Visual Score V1 |
| --- | --- |
| FC(F)(F)c1cccc(N2CCN(c3nc(NCc4ccccc4)ns3)CC2)c1 [compound 266] | Dead |
| CCOc1cc(CCNc2nsc(N3CCN(c4ccc(F)cc4)CC3)n2)ccc1OC [compound 267] | Dead |
| Fc1ccc(N2CCN(c3nc(NCCc4ccc(Oc5ccccc5)cc4)ns3)CC2)cc1 [compound 268] | Dead |
| Cc1cccc(C)c1N1CCN(c2nc(NCCc3ccc(Oc4ccccc4)cc3)ns2)CC1 [compound 269] | Dead |
| CCCCCCCCCCCCCCCCCCN(C)c1nc(NCCc2ccc(Oc3ccccc3)cc2)ns1 [compound 270] | Dead |

same assay, conditions: dose response, dilution V2, day 5

| Compound | 5 Day Visual Score V2 |
| --- | --- |
| CCN(CC)C(=O)C1CCCN(c2nc(NCc3ccccc3)ns2)C1 (centres unmarked) [compound 265] | OK (no effect (˜1000+ progeny)) |
| CCOc1cc(CCNc2nsc(N3CCN(c4ccc(F)cc4)CC3)n2)ccc1OC [compound 267] | L1 |
| Fc1ccc(N2CCN(c3nc(NCCc4ccc(Oc5ccccc5)cc4)ns3)CC2)cc1 [compound 268] | Dead |

same assay, conditions: dose response, dilution V3, day 5

| Compound | 5 Day Visual Score V3 |
| --- | --- |
| CCN(CC)C(=O)C1CCCN(c2nc(NCc3ccccc3)ns2)C1 (centres unmarked) [compound 265] | OK (no effect (˜1000+ progeny)) |
| CCOc1cc(CCNc2nsc(N3CCN(c4ccc(F)cc4)CC3)n2)ccc1OC [compound 267] | < (reduced broodsize (250-500 progeny)) |
| Cc1cccc(C)c1N1CCN(c2nc(NCCc3ccc(Oc4ccccc4)cc3)ns2)CC1 [compound 269] | OK (no effect (˜1000+ progeny)) |

same assay, conditions: dose response, dilution V4, day 5

| Compound | 5 Day Visual Score V4 |
| --- | --- |
| CCN(CC)C(=O)C1CCCN(c2nc(NCc3ccccc3)ns2)C1 (centres unmarked) [compound 265] | OK (no effect (˜1000+ progeny)) |
| FC(F)(F)c1cccc(N2CCN(c3nc(NCc4ccccc4)ns3)CC2)c1 [compound 266] | OK (no effect (˜1000+ progeny)) |
| CCOc1cc(CCNc2nsc(N3CCN(c4ccc(F)cc4)CC3)n2)ccc1OC [compound 267] | OK (no effect (˜1000+ progeny)) |
| Fc1ccc(N2CCN(c3nc(NCCc4ccc(Oc5ccccc5)cc4)ns3)CC2)cc1 [compound 268] | L4#AD/B |
| Cc1cccc(C)c1N1CCN(c2nc(NCCc3ccc(Oc4ccccc4)cc3)ns2)CC1 [compound 269] | OK (no effect (˜1000+ progeny)) |
| CCCCCCCCCCCCCCCCCCN(C)c1nc(NCCc2ccc(Oc3ccccc3)cc2)ns1 [compound 270] | OK (no effect (˜1000+ progeny)) |

same assay, conditions: dose response, dilution V5, day 5

| Compound | 5 Day Visual Score V5 |
| --- | --- |
| CCN(CC)C(=O)C1CCCN(c2nc(NCc3ccccc3)ns2)C1 (centres unmarked) [compound 265] | OK (no effect (˜1000+ progeny)) |
| FC(F)(F)c1cccc(N2CCN(c3nc(NCc4ccccc4)ns3)CC2)c1 [compound 266] | OK (no effect (˜1000+ progeny)) |
| CCOc1cc(CCNc2nsc(N3CCN(c4ccc(F)cc4)CC3)n2)ccc1OC [compound 267] | OK (no effect (˜1000+ progeny)) |
| Fc1ccc(N2CCN(c3nc(NCCc4ccc(Oc5ccccc5)cc4)ns3)CC2)cc1 [compound 268] | OK (no effect (˜1000+ progeny)) |
| Cc1cccc(C)c1N1CCN(c2nc(NCCc3ccc(Oc4ccccc4)cc3)ns2)CC1 [compound 269] | OK (no effect (˜1000+ progeny)) |
| CCCCCCCCCCCCCCCCCCN(C)c1nc(NCCc2ccc(Oc3ccccc3)cc2)ns1 [compound 270] | OK (no effect (˜1000+ progeny)) |

same assay, conditions: dose response, dilution V6, day 5

| Compound | 5 Day Visual Score V6 |
| --- | --- |
| CCN(CC)C(=O)C1CCCN(c2nc(NCc3ccccc3)ns2)C1 (centres unmarked) [compound 265] | OK (no effect (˜1000+ progeny)) |
| FC(F)(F)c1cccc(N2CCN(c3nc(NCc4ccccc4)ns3)CC2)c1 [compound 266] | OK (no effect (˜1000+ progeny)) |
| CCOc1cc(CCNc2nsc(N3CCN(c4ccc(F)cc4)CC3)n2)ccc1OC [compound 267] | OK (no effect (˜1000+ progeny)) |
| Fc1ccc(N2CCN(c3nc(NCCc4ccc(Oc5ccccc5)cc4)ns3)CC2)cc1 [compound 268] | B (low broodsize (25-100 progeny)) |
| Cc1cccc(C)c1N1CCN(c2nc(NCCc3ccc(Oc4ccccc4)cc3)ns2)CC1 [compound 269] | OK (no effect (˜1000+ progeny)) |
| CCCCCCCCCCCCCCCCCCN(C)c1nc(NCCc2ccc(Oc3ccccc3)cc2)ns1 [compound 270] | OK (no effect (˜1000+ progeny)) |
